Data published in patent US7741314B2, “2-Methylene-(20R,25S)-19,27-Dinor-(22E)-Vitamin D Analogs” (Wisconsin Alumni Research Foundation, priority 2006, dated 2010).
Like-named read-outs stand apart in the source and are kept apart here.

Columns and labels:
[1] = test system: Human promyelocytic leukemia (HL60) cells; test: HL-60 differentiation (nitro blue tetrazolium reduction); type: cell-based; details: FIG. 2; for EC50: HL-60 cells, four days after treatment, read-out: EC50, HL-60 cell differentiation
Experimental: The study drugs were dissolved in ethanol and the concentrations determined using UV spectrophotometry. Serial dilutions were prepared so that a range of drug concentrations could be tested without changing the final concentration of ethanol (≦0.2%) present in the cell cultures.
Human promyelocytic leukemia (HL60) cells were grown in RPMI-1640 medium containing 10% fetal bovine serum. The cells were incubated at 37° C. in the presence of 5% CO2.
HL60 cells were plated at 1.2×10^5 cells/ml. Eighteen hours after plating, cells in duplicate were treated with drug. Four days later, the cells were harvested and a nitro blue tetrazolium reduction assay was performed (Collins et al., 1979; J. Exp. Med. 149:969-974). The percentage of differentiated cells was determined by counting a total of 200 cells and recording the number that contained intracellular black-blue formazan deposits. Verification of differentiation to monocytic cells was determined by measuring phagocytic activity (data not shown).

[2] = test system: 24-hydroxylase (24Ohase) gene promoter in ROS 17/2.8 (bone) cells; test: In vitro transcription assay (luciferase reporter); type: cell-based; details: FIG. 3; for EC50: ROS 17/2.8 cells, 24Ohase promoter-luciferase, 16 h, read-out: EC50, transcriptional activity in bone cells
Experimental: Transcription activity was measured in ROS 17/2.8 (bone) cells that were stably transfected with a 24-hydroxylase (24Ohase) gene promoter upstream of a luciferase reporter gene (Arbour et al., 1998). Cells were given a range of doses. Sixteen hours after dosing the cells were harvested and luciferase activities were measured using a luminometer.
RLU=relative luciferase units.

[3] = test system: vitamin D-deficient rats; test: Bone calcium mobilization (serum calcium); type: in vivo, rat; details: FIG. 4
Experimental: (§1) Male, weanling Sprague-Dawley rats were placed on Diet 11 (0.47% Ca) diet+AEK for one week followed by Diet 11 (0.02% Ca)+AEK for 3 weeks. The rats were then switched to a diet containing 0.47% Ca for one week followed by two weeks on a diet containing 0.02% Ca. Dose administration began during the last week on 0.02% calcium diet. Four consecutive ip doses were given approximately 24 hours apart. Twenty-four hours after the last dose, blood was collected from the severed neck and the concentration of serum calcium determined as a measure of bone calcium mobilization. The first 10 cm of the intestine was also collected for intestinal calcium transport analysis using the everted gut sac method.

[4] = test system: vitamin D-deficient rats; test: Intestinal calcium transport (everted gut sac method); type: in vivo, rat; details: FIG. 5; for intestinal calcium transport: everted gut sac
Experimental: as §1

[5] = target: T1, full-length recombinant rat vitamin D receptor (Rattus norvegicus, UniProt P13053); test: Vitamin D receptor binding, competition with [3H]-1,25(OH)2D3; details: FIG. 1
T1 construct: Full-length recombinant rat receptor was expressed in E. coli; histidine tag (C); made in house; host or cells: E. coli BL21 (DE3) Codon Plus RIL
T1 sequence (P13053 1-423): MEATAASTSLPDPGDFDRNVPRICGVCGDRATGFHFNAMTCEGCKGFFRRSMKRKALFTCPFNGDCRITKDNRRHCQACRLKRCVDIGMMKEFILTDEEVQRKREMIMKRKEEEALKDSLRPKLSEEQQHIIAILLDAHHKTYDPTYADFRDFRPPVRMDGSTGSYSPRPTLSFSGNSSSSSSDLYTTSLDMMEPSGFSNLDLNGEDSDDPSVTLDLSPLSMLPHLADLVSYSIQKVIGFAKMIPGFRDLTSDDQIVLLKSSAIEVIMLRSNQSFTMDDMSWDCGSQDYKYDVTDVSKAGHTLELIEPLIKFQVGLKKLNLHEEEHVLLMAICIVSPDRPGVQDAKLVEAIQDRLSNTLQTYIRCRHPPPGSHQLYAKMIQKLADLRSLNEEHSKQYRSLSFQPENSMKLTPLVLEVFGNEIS
Experimental: Full-length recombinant rat receptor was expressed in E. coli BL21 (DE3) Codon Plus RIL cells and purified to homogeneity using two different column chromatography systems. The first system was a nickel affinity resin that utilizes the C-terminal histidine tag on this protein. The protein that was eluted from this resin was further purified using ion exchange chromatography (S-Sepharose Fast Flow). Aliquots of the purified protein were quick frozen in liquid nitrogen and stored at −80° C. until use. For use in binding assays, the protein was diluted in TEDK50 (50 mM Tris, 1.5 mM EDTA, pH7.4, 5 mM DTT, 150 mM KCl) with 0.1% Chaps detergent. The receptor protein and ligand concentration were optimized such that no more than 20% of the added radiolabeled ligand was bound to the receptor.
Radiolabeled and unlabeled ligands were added to 100 mcl of the diluted protein at a final ethanol concentration of ≦10%, mixed and incubated overnight on ice to reach binding equilibrium. The following day, 100 mcl of hydroxylapatite slurry (50%) was added to each tube and mixed at 10-minute intervals for 30 minutes. The hydroxylapaptite was collected by centrifugation and then washed three times with Tris-EDTA buffer (50 mM Tris, 1.5 mM EDTA, pH 7.4) containing 0.5% Titron X-100. […] Total binding was determined from the tubes containing only radiolabeled ligand.

Row | Structure (SMILES) | EC50 [1] [nM] | EC50 [2] [nM] | serum calcium levels ([3]; all dosages, rats on low calcium diet (0.02%)) | intestinal calcium transport ([4]; 260 pmol/day) | Ki ([5]; full-length recombinant rat VDR) [nM] | binding to the receptor compared to 1,25-(OH)2D3 ([5]; in words) | EC50 ([1]; Homo sapiens, 96 h) [nM] | potency on HL-60 cell differentiation compared to 1,25(OH)2D3 ([1]; in words) | transcriptional activity in bone cells compared to 1α,25-dihydroxyvitamin D3 ([2]; in words) | bone calcium mobilization (serum calcium) ([3]; 260 pmol/day ip for 4 consecutive days, rats on low calcium diet (0.02%)) | bone calcium mobilization (serum calcium) ([3]; 7020 pmol/day, rats on low calcium diet (0.02%)) | bone calcium mobilization activity compared to 1,25(OH)2D3 ([3]; in words) | intestinal calcium transport ([4]; 7020 pmol/day) | intestinal calcium transport activity compared to 1,25(OH)2D3 ([4]; in words)
1 | C=C1/C(=C\C=C2/CCC[C@]3(C)[C@@H]([C@H](C)CCCC(C)(C)O)CC[C@@H]23)C[C@@H](O)C[C@@H]1O [1,25(OH)2D3, 1α,25-dihydroxyvitamin D3, reference compound] | 2 | 0.2 | increased serum calcium levels at all dosages | promotes a significant increase |  |  |  |  |  |  |  |  |  | 
2 | C=C1[C@H](O)CC(=C/C=C2\CCC[C@]3(C)[C@@H]([C@H](C)/C=C/C[C@H](C)O)CC[C@@H]23)C[C@H]1O [REN, 2-methylene-(20R,25S)-19,27-dinor-(22E)-1α,25-dihydroxyvitamin D3] |  | 0.1 |  | promotes intestinal calcium transport only slightly | 0.4 | bound equally to the receptor | 1 | as potent as 1,25(OH)2D3 | about the same transcriptional activity | did not result in mobilization of bone calcium | without any substantial effect | very little bone calcium mobilization activity | significant intestinal calcium transport activity | very little activity
